Article PMC4858680, “A platinum-based hybrid drug design approach to circumvent acquired resistance to molecular targeted tyrosine kinase inhibitors” (Scientific Reports, 2016)
Residue numbers refer to the chain shown, from its start. Read-outs that look alike come from different tables or passages of the source.

How the values were obtained:
[1] = molecular target: T1, TYRO3 (Homo sapiens, UniProt Q06418); assay type: binding; details: for Percent control: 10 μM
T1 construct: purchased DiscoveRx Corporation (KINOMEscan service)
T1 sequence (Q06418 41-890): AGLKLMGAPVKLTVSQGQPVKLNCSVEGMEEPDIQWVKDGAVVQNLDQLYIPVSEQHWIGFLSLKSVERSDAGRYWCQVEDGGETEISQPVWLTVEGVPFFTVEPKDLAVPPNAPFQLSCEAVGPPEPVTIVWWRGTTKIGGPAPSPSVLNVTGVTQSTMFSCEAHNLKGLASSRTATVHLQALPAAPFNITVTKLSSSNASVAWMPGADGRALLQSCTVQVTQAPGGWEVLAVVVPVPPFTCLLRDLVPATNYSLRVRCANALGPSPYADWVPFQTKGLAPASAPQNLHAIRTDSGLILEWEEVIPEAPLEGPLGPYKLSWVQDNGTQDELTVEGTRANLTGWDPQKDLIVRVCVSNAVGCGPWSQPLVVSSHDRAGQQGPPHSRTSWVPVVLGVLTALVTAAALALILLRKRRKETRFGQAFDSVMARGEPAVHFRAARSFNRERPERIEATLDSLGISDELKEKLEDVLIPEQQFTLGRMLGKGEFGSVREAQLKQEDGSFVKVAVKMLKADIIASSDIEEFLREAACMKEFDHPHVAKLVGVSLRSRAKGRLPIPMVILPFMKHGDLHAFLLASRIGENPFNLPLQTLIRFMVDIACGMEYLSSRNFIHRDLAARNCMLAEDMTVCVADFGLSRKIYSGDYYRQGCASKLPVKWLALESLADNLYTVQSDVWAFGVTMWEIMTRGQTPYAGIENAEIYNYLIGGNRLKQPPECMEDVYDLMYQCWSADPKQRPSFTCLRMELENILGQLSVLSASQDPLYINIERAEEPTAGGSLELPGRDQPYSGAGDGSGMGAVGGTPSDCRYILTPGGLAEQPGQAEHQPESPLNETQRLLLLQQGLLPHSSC

[2] = molecular target: T2, FLT3(N841I) (Homo sapiens, UniProt P36888, N841I)
T2 sequence (P36888 27-993 N841I): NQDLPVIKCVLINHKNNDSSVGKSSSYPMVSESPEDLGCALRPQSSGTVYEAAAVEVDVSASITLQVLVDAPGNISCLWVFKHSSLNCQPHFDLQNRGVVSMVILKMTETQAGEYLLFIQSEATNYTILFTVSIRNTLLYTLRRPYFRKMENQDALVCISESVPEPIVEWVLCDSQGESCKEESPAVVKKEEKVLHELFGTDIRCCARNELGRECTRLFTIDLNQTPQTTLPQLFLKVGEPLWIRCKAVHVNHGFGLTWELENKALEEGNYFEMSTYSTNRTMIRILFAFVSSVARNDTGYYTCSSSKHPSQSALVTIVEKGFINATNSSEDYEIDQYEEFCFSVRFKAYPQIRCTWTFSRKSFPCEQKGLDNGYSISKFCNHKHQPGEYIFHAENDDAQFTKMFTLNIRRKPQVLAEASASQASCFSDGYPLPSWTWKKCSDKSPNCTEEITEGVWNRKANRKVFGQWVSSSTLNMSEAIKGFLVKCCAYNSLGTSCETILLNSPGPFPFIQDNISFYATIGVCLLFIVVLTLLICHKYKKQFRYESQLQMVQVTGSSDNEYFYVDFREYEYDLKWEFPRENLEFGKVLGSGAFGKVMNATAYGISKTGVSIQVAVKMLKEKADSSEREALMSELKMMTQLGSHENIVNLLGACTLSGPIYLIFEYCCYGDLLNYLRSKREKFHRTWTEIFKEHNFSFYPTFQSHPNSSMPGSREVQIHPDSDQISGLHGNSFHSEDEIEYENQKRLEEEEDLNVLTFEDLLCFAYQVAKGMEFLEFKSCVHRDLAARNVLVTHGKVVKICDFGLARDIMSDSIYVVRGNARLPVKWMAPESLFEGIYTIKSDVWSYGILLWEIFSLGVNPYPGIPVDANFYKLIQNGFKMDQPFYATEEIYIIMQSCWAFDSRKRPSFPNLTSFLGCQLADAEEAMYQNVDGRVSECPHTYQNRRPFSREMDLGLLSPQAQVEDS

[3] = molecular target: T3, KIT(L576P) (Homo sapiens, UniProt P10721, L576P); details: 10 μM
[4] = molecular target: T4, FLT3(D835Y) (Homo sapiens, UniProt P36888, D835Y)
T4 sequence (P36888 27-993 D835Y): T2 sequence (P36888 27-993 N841I) with D809Y, I815N

[5] = molecular target: T5, YES (Homo sapiens, UniProt P07947); assay type: binding; details: for Percent control: 10 μM
T5 construct: purchased DiscoveRx Corporation (KINOMEscan service)

[6] = molecular target: T3, KIT(L576P); experiment: biochemical; details: read-out: Percent control

T5 sequence (P07947 whole entry): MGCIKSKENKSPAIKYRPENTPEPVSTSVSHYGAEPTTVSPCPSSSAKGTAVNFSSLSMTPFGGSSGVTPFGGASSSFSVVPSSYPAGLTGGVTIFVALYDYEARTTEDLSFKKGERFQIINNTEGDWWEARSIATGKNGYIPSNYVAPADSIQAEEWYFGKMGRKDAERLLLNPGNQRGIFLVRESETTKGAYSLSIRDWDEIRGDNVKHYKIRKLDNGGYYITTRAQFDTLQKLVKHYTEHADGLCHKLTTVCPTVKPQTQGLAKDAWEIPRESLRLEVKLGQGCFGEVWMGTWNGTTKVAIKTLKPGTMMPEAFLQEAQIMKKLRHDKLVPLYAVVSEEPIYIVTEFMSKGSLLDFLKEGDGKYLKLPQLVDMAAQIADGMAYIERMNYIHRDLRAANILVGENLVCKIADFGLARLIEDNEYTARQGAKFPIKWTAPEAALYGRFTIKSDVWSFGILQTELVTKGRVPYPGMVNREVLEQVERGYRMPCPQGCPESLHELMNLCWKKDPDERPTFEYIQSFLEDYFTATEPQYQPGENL
T3 sequence (P10721 26-976 L576P): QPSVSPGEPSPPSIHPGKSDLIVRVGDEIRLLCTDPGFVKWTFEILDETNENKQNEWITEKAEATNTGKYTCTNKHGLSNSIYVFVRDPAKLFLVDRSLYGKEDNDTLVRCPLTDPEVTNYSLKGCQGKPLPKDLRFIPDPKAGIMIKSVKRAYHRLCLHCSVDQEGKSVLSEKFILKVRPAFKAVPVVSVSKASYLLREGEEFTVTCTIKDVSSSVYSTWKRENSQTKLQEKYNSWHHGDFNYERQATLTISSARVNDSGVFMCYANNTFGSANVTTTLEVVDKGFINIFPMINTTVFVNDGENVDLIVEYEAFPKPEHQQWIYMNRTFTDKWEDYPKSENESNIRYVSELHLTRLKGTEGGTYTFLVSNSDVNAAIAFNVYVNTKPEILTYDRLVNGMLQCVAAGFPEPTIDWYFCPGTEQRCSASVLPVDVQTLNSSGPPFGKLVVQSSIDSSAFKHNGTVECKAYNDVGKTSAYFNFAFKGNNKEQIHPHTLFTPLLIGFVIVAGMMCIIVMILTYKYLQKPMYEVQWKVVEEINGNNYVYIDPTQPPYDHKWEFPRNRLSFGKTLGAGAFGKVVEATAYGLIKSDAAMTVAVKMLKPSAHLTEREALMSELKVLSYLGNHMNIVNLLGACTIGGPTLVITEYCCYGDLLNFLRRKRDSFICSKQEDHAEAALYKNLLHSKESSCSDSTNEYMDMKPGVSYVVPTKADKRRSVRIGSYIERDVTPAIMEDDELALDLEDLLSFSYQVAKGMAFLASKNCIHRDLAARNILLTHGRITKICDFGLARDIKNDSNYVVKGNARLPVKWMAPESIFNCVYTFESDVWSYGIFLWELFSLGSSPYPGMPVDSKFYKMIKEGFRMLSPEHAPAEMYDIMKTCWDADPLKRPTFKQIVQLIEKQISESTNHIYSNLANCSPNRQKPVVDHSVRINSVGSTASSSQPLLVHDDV

Cc1ccc(NC(=O)c2ccc(CN3CCN(C)CC3)cc2)cc1Nc1nccc(-c2cccnc2)[n+]1[Pt-2]1([Cl])[NH2+]C2CCCCC2[NH2+]1 (centres unmarked) [1b, oxaliplatin-imatinib]
Percent control [1]: 80% | Percent control ([2]; FLT3(N841I), 10 μM): 72% | Percent control [3]: 0.9% | Percent control ([4]; FLT3(D835Y), 10 μM): 81% | Percent control [5]: 100%

C#Cc1cccc(Nc2c3cc(OCCOC)c(OCCOC)cc3nc[n+]2[Pt@SP2-2]([NH3+])([NH3+])[Cl])c1 [2a, cisplatin-erlotinib]
Percent control [1]: 85% | Percent control [2]: 70 | Percent control [3]: 73% | Percent control [4]: 21 | Percent control [5]: 100%

COc1cc2c(Nc3ccc(Br)cc3F)[n+]([Pt-2]3([Cl])[NH2+]C4CCCCC4[NH2+]3)cnc2cc1OCC1CCN(C)CC1 (centres unmarked) [3b, oxaliplatin-vandetanib]
Percent control [1]: 0% | Percent control [2]: 18 | Percent control [3]: 2.2% | Percent control [4]: 46 | Percent control [5]: 23%

C#Cc1cccc(Nc2ncnc3cc(OCCOC)c(OCCOC)cc23)c1 [Erlotinib]
remaining activity at 10 µM [6]: 25.9%

Cc1ccc(NC(=O)c2ccc(CN3CCN(C)CC3)cc2)cc1Nc1nccc(-c2cccnc2)n1 [Imatinib, reference compound]
Percent control [1]: 100% | Percent control ([2]; FLT3(N841I), 10 μM): 100% | remaining activity at 10 µM [6]: 0.1% | Percent control ([4]; FLT3(D835Y), 10 μM): 100%

COc1cc2c(Nc3ccc(Br)cc3F)ncnc2cc1OCC1CCN(C)CC1 [Vandetanib, reference compound]
remaining binding at 10 µM ([1]; read-out: Percent control): 0.9% | remaining activity at 10 µM [6]: 1.4% | remaining binding at 10 µM ([5]; read-out: Percent control): 1.2%
